According to ChEMBL document CHEMBL3763016, “Design, synthesis and biological evaluation of 3'-benzylated analogs of 3'-epi-neoponkoranol as potent α-glucosidase inhibitors” (Eur J Med Chem, 2016):

Experiments:
[1] = Cytotoxicity against human HELF cells by MTT assay; format: cell-based
[2] = target: Sucrase-isomaltase, intestinal (Rattus norvegicus) (UniProt P23739); experiment: Potency index, ratio of acarbose IC50 to compound IC50 for rat intestinal sucrase
[3] = target: T1, Sucrase-isomaltase, intestinal (Rattus norvegicus, UniProt P23739); experiment: Inhibition of rat intestinal sucrase using sucrose as substrate incubated for 30 mins by glucose-oxidase method
[4] = target: T1, Sucrase-isomaltase, intestinal; experiment: Competitive inhibition of rat intestinal sucrase using sucrose as substrate incubated for 30 mins by Lineweaver-Burk plot analysis
[5] = Competitive inhibition of rat intestinal maltase using maltose as substrate incubated for 30 mins by Lineweaver-Burk plot analysis
[6] = Inhibition of rat intestinal maltase using maltose as substrate incubated for 30 mins by glucose-oxidase method

T1 sequence (P23739 1-1013 limits assumed): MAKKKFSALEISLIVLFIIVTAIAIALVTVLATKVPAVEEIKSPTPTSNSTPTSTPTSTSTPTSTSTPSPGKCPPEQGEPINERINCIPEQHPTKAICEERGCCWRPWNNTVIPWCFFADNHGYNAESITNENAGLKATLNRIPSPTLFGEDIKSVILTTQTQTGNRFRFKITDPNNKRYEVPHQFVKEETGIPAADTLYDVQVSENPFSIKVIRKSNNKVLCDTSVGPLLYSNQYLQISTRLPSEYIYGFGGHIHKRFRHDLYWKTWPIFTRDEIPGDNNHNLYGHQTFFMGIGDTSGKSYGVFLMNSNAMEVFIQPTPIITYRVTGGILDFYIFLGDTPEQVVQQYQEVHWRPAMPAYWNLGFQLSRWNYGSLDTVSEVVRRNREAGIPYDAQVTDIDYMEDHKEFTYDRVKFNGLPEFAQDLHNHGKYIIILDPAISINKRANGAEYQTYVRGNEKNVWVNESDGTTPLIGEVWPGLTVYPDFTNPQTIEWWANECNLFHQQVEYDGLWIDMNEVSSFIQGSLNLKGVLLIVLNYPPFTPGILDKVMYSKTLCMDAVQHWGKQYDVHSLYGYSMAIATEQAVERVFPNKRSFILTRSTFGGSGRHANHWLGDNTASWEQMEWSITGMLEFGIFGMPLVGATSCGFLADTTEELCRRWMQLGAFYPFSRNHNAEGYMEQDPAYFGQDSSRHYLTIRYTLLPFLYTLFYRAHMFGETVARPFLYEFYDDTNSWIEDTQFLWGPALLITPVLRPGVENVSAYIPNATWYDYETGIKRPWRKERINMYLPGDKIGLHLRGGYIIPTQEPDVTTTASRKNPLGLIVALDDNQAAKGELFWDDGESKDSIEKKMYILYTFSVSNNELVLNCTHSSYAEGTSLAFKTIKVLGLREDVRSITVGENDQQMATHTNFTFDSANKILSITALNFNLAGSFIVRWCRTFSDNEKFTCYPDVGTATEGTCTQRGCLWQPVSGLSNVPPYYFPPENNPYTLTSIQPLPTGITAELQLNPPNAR
T1 sequence (P23739 1014-1841 limits assumed): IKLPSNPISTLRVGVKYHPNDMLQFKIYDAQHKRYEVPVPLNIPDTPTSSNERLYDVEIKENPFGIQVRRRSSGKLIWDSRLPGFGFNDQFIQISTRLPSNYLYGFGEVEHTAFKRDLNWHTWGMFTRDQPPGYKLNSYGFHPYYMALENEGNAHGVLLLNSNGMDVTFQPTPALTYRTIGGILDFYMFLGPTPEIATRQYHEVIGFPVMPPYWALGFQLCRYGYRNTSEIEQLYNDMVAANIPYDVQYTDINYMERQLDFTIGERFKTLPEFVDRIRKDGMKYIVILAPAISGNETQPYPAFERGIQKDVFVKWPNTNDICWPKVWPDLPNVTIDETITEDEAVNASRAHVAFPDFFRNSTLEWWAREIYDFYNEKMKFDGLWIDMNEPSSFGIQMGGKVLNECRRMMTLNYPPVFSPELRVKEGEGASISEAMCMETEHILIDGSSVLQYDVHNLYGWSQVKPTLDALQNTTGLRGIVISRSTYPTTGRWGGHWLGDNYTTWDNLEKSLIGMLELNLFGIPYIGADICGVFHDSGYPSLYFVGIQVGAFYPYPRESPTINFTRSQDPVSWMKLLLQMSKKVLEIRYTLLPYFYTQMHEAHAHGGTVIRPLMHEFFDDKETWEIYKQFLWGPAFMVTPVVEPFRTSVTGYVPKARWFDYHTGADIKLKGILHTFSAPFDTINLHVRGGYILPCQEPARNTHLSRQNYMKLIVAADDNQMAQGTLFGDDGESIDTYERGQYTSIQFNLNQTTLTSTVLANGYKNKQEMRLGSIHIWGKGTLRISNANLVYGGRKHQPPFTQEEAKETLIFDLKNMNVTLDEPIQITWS
Sequence of Sucrase-isomaltase, intestinal (Rattus norvegicus) (P23739 1-1013 limits assumed): as the sequence (P23739 1-1013 limits assumed) above
Sequence of Sucrase-isomaltase, intestinal (Rattus norvegicus) (P23739 1014-1841 limits assumed): as the sequence (P23739 1014-1841 limits assumed) above

| Ratio IC50 [2] | IC50 [3] | Ki [4] | Ki [5] | IC50 [6] | Structure (SMILES) | IC50 [1] |
| --- | --- | --- | --- | --- | --- | --- |
| – | 1900 nM | – | – | 5300 nM | OC[C@@H]1[C@@H](O)[C@H](O)C[S+]1C[C@@H](O)[C@H](OCc1ccccc1)[C@H](O)[C@@H](O)CO (some centres undefined) | – |
| – | 300 nM | – | – | 2000 nM | OC[C@@H]1[C@@H](O)[C@H](O)C[S+]1C[C@@H](O)[C@H](O)[C@H](O)[C@@H](O)CO (some centres undefined) | – |
| – | 270 nM | – | – | 9500 nM | CCO[C@H]([C@H](O)[C@@H](O)CO)[C@H](O)C[S+]1C[C@@H](O)[C@H](O)[C@H]1CO (some centres undefined) | – |
| – | 510 nM | – | – | 5200 nM | OC[C@@H]1[C@@H](O)[C@H](O)C[S+]1C[C@@H](O)[C@H](OCc1cccc(Cl)c1)[C@H](O)[C@@H](O)CO (some centres undefined) | – |

The remaining lines, values behind:

| Structure (SMILES) | Ratio IC50 [2] | IC50 [3] | Ki [4] | Ki [5] | IC50 [6] | IC50 [1] |
| --- | --- | --- | --- | --- | --- | --- |
| OC[C@@H]1[C@@H](O)[C@H](O)C[S+]1C[C@@H](O)[C@H](OCc1ccccc1C(F)(F)F)[C@H](O)[C@@H](O)CO.[Cl-] (some centres undefined) | 10 | 200 nM | 216 nM | 0.28 µg/mL | 2500 nM | > 500000 nM |
| OCC(CO)N[C@H]1C[C@](O)(CO)[C@@H](O)[C@H](O)[C@H]1O [VOGLIBOSE] | – | 300 nM | – | – | – | – |
| OC[C@@H]1[C@@H](O)[C@H](O)C[S+]1C[C@@H](O)[C@H](OCc1ccc(C(F)(F)F)cc1)[C@H](O)[C@@H](O)CO.[Cl-] (some centres undefined) | – | 4600 nM | 786 nM | 0.74 µg/mL | 10000 nM | – |
| O=[N+]([O-])c1ccccc1CO[C@H]([C@H](O)[C@@H](O)CO)[C@H](O)C[S+]1C[C@@H](O)[C@H](O)[C@H]1CO.[Cl-] (some centres undefined) | – | 320 nM | 185 nM | 0.6 µg/mL | 3500 nM | > 500000 nM |
| OC[C@@H]1[C@@H](O)[C@H](O)C[S+]1C[C@@H](O)[C@H](OCc1ccc(Cl)cc1)[C@H](O)[C@@H](O)CO (some centres undefined) | – | 5600 nM | – | – | 18300 nM | – |
| OC[C@@H]1[C@@H](O)[C@H](O)C[S+]1C[C@@H](O)[C@H](OCc1cccc(C(F)(F)F)c1)[C@H](O)[C@@H](O)CO.[Cl-] (some centres undefined) | – | 450 nM | 354 nM | 0.66 µg/mL | 9600 nM | – |
| O=[N+]([O-])c1cccc(CO[C@H]([C@H](O)[C@@H](O)CO)[C@H](O)C[S+]2C[C@@H](O)[C@H](O)[C@H]2CO)c1 (some centres undefined) | – | 210 nM | – | – | 6700 nM | – |
| OC[C@@H]1[C@@H](O)[C@H](O)C[S+]1C[C@@H](O)[C@H](OCc1ccccc1Cl)[C@H](O)[C@@H](O)CO.[Cl-] (some centres undefined) | – | 700 nM | 210 nM | 0.45 µg/mL | 8200 nM | > 500000 nM |
| O=[N+]([O-])c1ccc(CO[C@H]([C@H](O)[C@@H](O)CO)[C@H](O)C[S+]2C[C@@H](O)[C@H](O)[C@H]2CO)cc1 (some centres undefined) | – | 4200 nM | – | – | 32400 nM | – |
